Earlier results as cited in patent US20130312498A1, “CARDIOVASCULAR DISEASE RISK ASSESSMENT AND TREATMENT BY STEROL AND/OR STANOL MARKERS” (FOUNDATION FOR HEALTH IMPROVEMENT AND TECHNOLOGY, priority 2012, published 2013).

Tests used:
[1] = molecular target: T1, NPC1L1/AP2-clathrin complex (Homo sapiens, UniProt Q9UHC9); conditions: typical effect, intestinal sterol absorption
T1 construct: from tissue; host or cells: intestinal epithelium (in vivo, patients)
T1 sequence (Q9UHC9 22-1359): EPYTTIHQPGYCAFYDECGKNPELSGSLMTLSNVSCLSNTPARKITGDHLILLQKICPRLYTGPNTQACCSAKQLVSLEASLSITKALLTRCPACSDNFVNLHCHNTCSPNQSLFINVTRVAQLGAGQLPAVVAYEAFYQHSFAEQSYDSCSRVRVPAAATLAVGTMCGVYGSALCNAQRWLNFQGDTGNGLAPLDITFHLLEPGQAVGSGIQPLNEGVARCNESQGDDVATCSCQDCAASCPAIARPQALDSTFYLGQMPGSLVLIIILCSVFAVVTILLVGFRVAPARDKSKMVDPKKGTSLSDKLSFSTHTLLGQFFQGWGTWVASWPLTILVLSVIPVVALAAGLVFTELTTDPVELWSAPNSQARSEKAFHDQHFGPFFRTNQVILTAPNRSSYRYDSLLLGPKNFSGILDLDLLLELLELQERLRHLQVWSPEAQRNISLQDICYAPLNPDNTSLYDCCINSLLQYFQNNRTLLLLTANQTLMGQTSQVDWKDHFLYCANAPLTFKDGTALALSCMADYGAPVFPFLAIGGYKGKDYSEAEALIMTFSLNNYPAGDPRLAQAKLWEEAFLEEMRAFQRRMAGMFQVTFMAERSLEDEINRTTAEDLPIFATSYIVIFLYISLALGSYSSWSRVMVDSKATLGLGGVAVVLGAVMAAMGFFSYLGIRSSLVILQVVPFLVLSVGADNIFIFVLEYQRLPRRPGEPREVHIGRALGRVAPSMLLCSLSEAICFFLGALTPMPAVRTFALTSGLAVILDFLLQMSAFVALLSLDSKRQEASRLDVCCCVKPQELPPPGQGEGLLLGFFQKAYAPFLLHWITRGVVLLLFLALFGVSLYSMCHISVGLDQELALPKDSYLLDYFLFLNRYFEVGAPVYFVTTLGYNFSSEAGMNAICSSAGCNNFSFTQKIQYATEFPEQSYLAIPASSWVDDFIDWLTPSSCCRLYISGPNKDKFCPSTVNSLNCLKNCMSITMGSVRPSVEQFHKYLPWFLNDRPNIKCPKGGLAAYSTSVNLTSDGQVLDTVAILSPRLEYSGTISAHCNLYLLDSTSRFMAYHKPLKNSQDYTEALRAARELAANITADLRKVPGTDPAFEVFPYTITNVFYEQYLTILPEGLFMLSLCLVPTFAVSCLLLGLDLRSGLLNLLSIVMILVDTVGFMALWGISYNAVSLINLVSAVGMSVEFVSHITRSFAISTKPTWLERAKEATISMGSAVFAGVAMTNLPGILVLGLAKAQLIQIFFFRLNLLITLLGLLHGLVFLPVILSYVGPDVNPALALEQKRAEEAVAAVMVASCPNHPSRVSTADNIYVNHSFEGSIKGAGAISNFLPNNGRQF

[2] = system: fatty acid absorption; conditions: in vivo

reduction of sterol absorption [1]: about 50%
SMILES: O=C1[C@H](CC[C@H](O)c2ccc(F)cc2)[C@@H](c2ccc(O)cc2)N1c1ccc(F)cc1 [Ezetimibe]
effect on fatty acid absorption [2]: no effect
